The text below walks through data of PMC7311426, “An amphipathic peptide with antibiotic activity against multidrug-resistant Gram-negative bacteria” (Nature Communications, 2020).

Residues, ends and D or L forms follow the SMILES beside them.

Holding throughout (experiment): microbe, parasite or virus in culture
One experiment relates to P. aeruginosa. The conditions noted are these: P. aeruginosa ATCC 27853 control strain; MHB; mode of 6 replicates. As for the experimental part:
(§1) Antimicrobial activity of arenicin-3 and its analogs was tested against a panel of bacterial and yeast strains by in vitro broth microdilution (BMD) assay with minimum inhibitory concentration (MIC) determination. Strains were purchased from American Type Culture Collection (ATCC) or obtained from clinical collaborators (full strain profiles provided in Supplementary Data 3). All peptides were prepared in Ringer’s acetate solution, and subsequently diluted fresh in water for each independent assay.
(§2) Assays were performed in Mueller Hinton broth (MHB; BD, Cat. No. 211443) for bacteria, and yeast extract-peptone dextrose (YPD; Sigma-Aldrich, Y1500) for yeast. The concentrations of the peptides and comparator antibiotics/antifungals in the assay wells ranged from either 128 or 64 μg mL^−1, to 0.06 or 0.03 μg mL^−1 as a 12-point dose response plated as a 2-fold dilution series across the wells of the plate in duplicate for each independent biological replicate, using a final cell density of 5 × 10^5 CFU mL^−1 and 2.5 × 10^3 CFU mL^−1 for bacteria and yeast respectively. Final assay volumes were 100 μL per well with MICs determined visually following 18-20 h incubation at 37 °C for bacteria, 24 h incubation at 35 °C for Candida albicans, and 24 h incubation at 35 °C with resazurin addition (0.006%; Sigma-Aldrich, Cat # R7017) for a further 3 h for Cryptococcus neoformans, without shaking. Additional bacterial and yeast susceptibility assays were performed in Cation-Adjusted Mueller Hinton Broth (CAMHB; BD, Cat No. 212322) and Roswell Park Memorial Institute (RPMI) 1640 culture medium (Life Technologies Australia, Cat No. 21870092), respectively, as recommended by CLSI guidelines (M07 11th ed[36] and M27 4th ed[37]). […] Agarose MICs were determined in MHB with 1% agarose (Bioline molecular grade; Cat no: BIO-41025; high purity, high gel strength). All experiments were performed a minimum of six replicates (n ≥ 6).

The next experiment deals with E. coli. The conditions noted are these: E. coli ATCC 25922 FDA control strain; MHB; mode of 6 independent biological replicates. As for the experimental part: as §1, §2
The test system of another experiment is A. baumannii. As to conditions: A. baumannii ATCC 19636 type strain; MHB; mode of 6 replicates. As for the experimental part: as §1, §2
The test system of a further experiment is K. pneumoniae. The conditions noted are these: K. pneumoniae ATCC 13883 type strain (polymyxin/colistin heteroresistant); MHB; mode of 6 replicates. As for the experimental part:
as §1, §2

The test system of the next experiment is S. aureus. The conditions noted are these: S. aureus ATCC 25923 MSSA; MHB; mode of 6 replicates. As for the experimental part:
as §1, §2

In the case of `CC(C)[C@@H]1NC(=O)[C@H](Cc2ccc(O)cc2)NC(=O)[C@H](Cc2c[nH]c3ccccc23)NC(=O)[C@@H](NC(=O)[C@@H](N)Cc2ccccc2)CSSC[C@@H](C(=O)N[C@@H](CC(N)=O)C(=O)O)NC(=O)[C@H](CCCNC(=N)N)NC(=O)[C@H](CCCNC(=N)N)NC(=O)[C@H](Cc2ccc(O)cc2)NC(=O)[C@@H]2CSSC[C@H](NC1=O)C(=O)N[C@@H](C)C(=O)N[C@@H](CCCNC(=N)N)C(=O)N[C@@H](CCCNC(=N)N)C(=O)N[C@@H](CC(N)=O)C(=O)NCC(=O)N[C@@H](C)C(=O)N[C@@H](CCCNC(=N)N)C(=O)N[C@@H](C(C)C)C(=O)N2` [AB0015] (HELM PEPTIDE1{F.C.W.Y.V.C.A.R.R.N.G.A.R.V.C.Y.R.R.C.N}$PEPTIDE1,PEPTIDE1,2:R3-19:R3|PEPTIDE1,PEPTIDE1,6:R3-15:R3$$$V2.0), the “BMD MIC” value is 1 µg/mL in the experiment on P. aeruginosa; 0.5 µg/mL in the experiment on E. coli; 0.5 µg/mL in the experiment on A. baumannii; 2 µg/mL in the experiment with K. pneumoniae; above 64 µg/mL with S. aureus.

Regarding `CC(C)[C@@H]1NC(=O)[C@H](Cc2ccc(O)cc2)NC(=O)[C@H](Cc2c[nH]c3ccccc23)NC(=O)[C@@H](NC(=O)CN)CSSC[C@@H](C(=O)N[C@@H](CC(N)=O)C(=O)O)NC(=O)[C@H](CCCNC(=N)N)NC(=O)[C@H](CCCNC(=N)N)NC(=O)[C@H](Cc2ccc(O)cc2)NC(=O)[C@@H]2CSSC[C@H](NC1=O)C(=O)N[C@@H](C)C(=O)N[C@@H](CCCNC(=N)N)C(=O)N[C@@H](CCCNC(=N)N)C(=O)N[C@@H](CC(N)=O)C(=O)NCC(=O)N[C@@H](C)C(=O)N[C@@H](CCCNC(=N)N)C(=O)N[C@@H](C(C)C)C(=O)N2` [AB0016] (HELM PEPTIDE1{G.C.W.Y.V.C.A.R.R.N.G.A.R.V.C.Y.R.R.C.N}$PEPTIDE1,PEPTIDE1,2:R3-19:R3|PEPTIDE1,PEPTIDE1,6:R3-15:R3$$$V2.0), the “BMD MIC” value with P. aeruginosa is 1 µg/mL; in the experiment with E. coli, 1 µg/mL; in the experiment on A. baumannii, 1 µg/mL; in the experiment on K. pneumoniae, 2 µg/mL; in the experiment with S. aureus, above 64 µg/mL.

As for `CC(C)[C@@H]1NC(=O)[C@H](Cc2ccc(O)cc2)NC(=O)[C@H](Cc2c[nH]c3ccccc23)NC(=O)[C@@H](NC(=O)[C@H](Cc2ccccc2)NC(=O)CN)CSSC[C@@H](C(N)=O)NC(=O)[C@H](CCCNC(=N)N)NC(=O)[C@H](CCCNC(=N)N)NC(=O)[C@H](Cc2ccc(O)cc2)NC(=O)[C@@H]2CSSC[C@H](NC1=O)C(=O)N[C@@H](C)C(=O)N[C@@H](CCCNC(=N)N)C(=O)N[C@@H](CCCNC(=N)N)C(=O)N[C@@H](CC(N)=O)C(=O)NCC(=O)N[C@@H](C)C(=O)N[C@@H](CCCNC(=N)N)C(=O)N[C@@H](C(C)C)C(=O)N2` [AB0017] (HELM PEPTIDE1{G.F.C.W.Y.V.C.A.R.R.N.G.A.R.V.C.Y.R.R.C.[am]}$PEPTIDE1,PEPTIDE1,3:R3-20:R3|PEPTIDE1,PEPTIDE1,7:R3-16:R3$$$V2.0), the “BMD MIC” value with P. aeruginosa is 0.25 µg/mL; in the experiment with E. coli, 0.5 µg/mL; with A. baumannii, 1 µg/mL; in the experiment with K. pneumoniae, 0.125 µg/mL; with S. aureus, 64 µg/mL.
